ChEMBL document CHEMBL1130608, “Synthesis and anticancer evaluation of certain gamma-aryloxymethyl-alpha-methylene-gamma-phenyl-gamma-butyrolactones” (1998)

What was measured:
COLO 205 = assay: In vitro anticancer activity against COLO 205 colon cancer cell line; type: functional; details: Homo sapiens
HOP-62 [1] = assay: In vitro anticancer activity against HOP-62 non-smallcell lung cancer cell line; type: functional; details: Homo sapiens
Hs-578T = assay: In vitro anticancer activity against Hs 578.T breast cancer cell line; type: functional; details: Homo sapiens
LOX IMVI [2] = assay: In vitro anticancer activity against LOX IMVI melanoma cancer cell line; type: functional; details: Homo sapiens
SK-OV-3 = assay: In vitro anticancer activity against SK-OV-3 ovarian cancer cell line; type: functional; details: Homo sapiens
DU-145 = assay: In vitro anticancer activity against DU-145 prostate cancer cell line; type: functional; details: Homo sapiens
RPMI-8226 [3] = assay: In vitro anticancer activity against RPMI-8226 Leukemia cancer cell line; Most sensitive cell; type: functional; details: Homo sapiens
MDA-MB-435 = assay: In vitro anticancer activity against MDA-MB-435 breast cancer cell line; type: functional; details: Homo sapiens
NCI-H322M [4] = assay: In vitro anticancer activity against NCI-H322M non-small cell lung cancer cell line; type: functional; details: Homo sapiens
Malme-3M = assay: In vitro anticancer activity against MALME-3M melanoma cancer cell line; type: functional; details: Homo sapiens
U-251 [5] = assay: In vitro anticancer activity against U-251 CNS cancer cell line; type: functional; details: Homo sapiens
IGROV-1 = assay: In vitro anticancer activity against IGROV1 ovarian cancer cell line; type: functional; details: Homo sapiens
ACHN = assay: In vitro anticancer activity against ACHN renal cancer cell line; type: functional; details: Homo sapiens
[6] = Ratio of the least sensitive cell to the most sensitive cell; type: functional
SR [7] = assay: In vitro anticancer activity against SR Leukemia cancer cell line; type: functional; details: Homo sapiens
PC-3 = assay: In vitro anticancer activity against PC-3 prostate cancer cell line; type: functional; details: Homo sapiens
TK-10 = assay: In vitro anticancer activity against TK-10 renal cancer cell line; type: functional; details: Homo sapiens
SW-620 = assay: In vitro anticancer activity against SW-620 colon cancer cell line; type: functional; details: Homo sapiens
SNB-19 [8] = assay: In vitro anticancer activity against SNB-19 CNS cancer cell line; Leaset sensitive cell; type: functional; details: Homo sapiens
[9] = system: Panel leukemia (Carcinoma cell lines); assay: Compound was evaluated for in vitro anticancer activity against leukemia cell lines; type: functional, cell-based
SNB-19 [10] = assay: In vitro anticancer activity against SNB-19 CNS cancer cell line; type: functional; details: Homo sapiens
U-251 [11] = assay: In vitro anticancer activity against U-251 CNS cancer cell line; Least sensitive cell; type: functional; details: Homo sapiens
RPMI-8226 [12] = assay: In vitro anticancer activity against RPMI-8226 Leukemia cancer cell line; type: functional; details: Homo sapiens
LOX IMVI [13] = assay: In vitro anticancer activity against LOX IMVI melanoma cancer cell line; Most sensitive cell; type: functional; details: Homo sapiens
RPMI-8226 [14] = assay: In vitro anticancer activity against RPMI-8226 leukemia cancer cell line; Most sensitive cell; type: functional; details: Homo sapiens
NCI-H322M [15] = assay: In vitro anticancer activity against NCI-H322M non-small cell lung cancer cell line; Least sensitive cell; type: functional; details: Homo sapiens
SR [16] = assay: In vitro anticancer activity against SR leukemia cancer cell line; type: functional; details: Homo sapiens
SNB-19 [17] = assay: In vitro anticancer activity against SNB-19 CNS cancer cell line; Least sensitive cell; type: functional; details: Homo sapiens
HOP-62 [18] = assay: In vitro anticancer activity against HOP-62 non-smallcell lung cancer cell line; Least sensitive cell; type: functional; details: Homo sapiens
HOP-62 [19] = assay: In vitro anticancer activity against HOP-62 non-small cell lung cancer cell line; type: functional; details: Homo sapiens
SR [20] = assay: In vitro anticancer activity against SR leukemia cancer cell line; Most sensitive cell; type: functional; details: Homo sapiens
RPMI-8226 [21] = assay: In vitro anticancer activity against RPMI-8226 leukemia cancer cell line; type: functional; details: Homo sapiens

Row | Compound | GI50 (COLO 205) | GI50 (HOP-62 [1]) | GI50 (Hs-578T) | GI50 (LOX IMVI [2]) | GI50 (SK-OV-3) | GI50 (DU-145) | GI50 (MDA-MB-435) | GI50 (NCI-H322M [4]) | GI50 (Malme-3M) | GI50 (U-251 [5]) | GI50 (IGROV-1) | GI50 (ACHN) | Ratio [6] | GI50 (SR [7]) | GI50 (PC-3) | GI50 (TK-10) | GI50 (SW-620) | GI50 (SNB-19 [10]) | other results
1 | C=C1CC(COc2ccc3cccc(O)c3n2)(c2ccccc2)OC1=O (stereo not given) | 1780 nM | 2140 nM | 2290 nM | 1290 nM | 7080 nM | 11200 nM | 2000 nM | 8510 nM | 1700 nM | 1820 nM | 1660 nM | 1510 nM | 3.01 | 724 nM | 3090 nM | 7080 nM | 1860 nM | – | GI50 (RPMI-8226 [3]): 14.1 nM; GI50 (SNB-19 [8]): 14500 nM
2 | CARBOPLATIN | – | – | – | – | – | – | – | – | – | – | – | – | – | – | – | – | – | – | GI50 [9]: 107000 nM
3 | CISPLATIN | – | – | – | – | – | – | – | – | – | – | – | – | – | – | – | – | – | – | GI50 [9]: 4470 nM
4 | C=C1CC(COc2ccccc2)(c2ccccc2)OC1=O (stereo not given) | 1740 nM | 14800 nM | 11700 nM | – | – | 15100 nM | 7410 nM | 15500 nM | 10500 nM | – | 14100 nM | 1740 nM | 1.06 | 3240 nM | 2140 nM | 3160 nM | 1950 nM | 11200 nM | GI50 (U-251 [11]): 17400 nM; GI50 (RPMI-8226 [12]): 1950 nM; GI50 (LOX IMVI [13]): 1510 nM
5 | C=C1CC(COc2cccc3cccnc23)(c2ccccc2)OC1=O (stereo not given) | 1510 nM | 5130 nM | 1480 nM | 1350 nM | 9330 nM | 3800 nM | 2140 nM | – | 1510 nM | 2140 nM | 1550 nM | 1620 nM | 2.87 | – | 1580 nM | 1660 nM | 1070 nM | 12000 nM | GI50 (RPMI-8226 [14]): 19.9 nM; GI50 (NCI-H322M [15]): 14800 nM; GI50 (SR [16]): 245 nM
6 | C=C1CC(COc2cccc3ccc(C)nc23)(c2ccccc2)OC1=O (stereo not given) | 2240 nM | 3240 nM | 2000 nM | 1450 nM | 6760 nM | 5620 nM | 3020 nM | 12000 nM | 1700 nM | 1780 nM | 1780 nM | 1580 nM | 3.23 | 776 nM | 2950 nM | 2090 nM | 1480 nM | – | GI50 (RPMI-8226 [3]): 10 nM; GI50 (SNB-19 [17]): 17000 nM
7 | C=C1CC(COc2ccc3ccccc3c2)(c2ccccc2)OC1=O (stereo not given) | 1950 nM | – | 3890 nM | – | 7590 nM | 12000 nM | 2880 nM | 12900 nM | 3390 nM | 2820 nM | 1550 nM | 4370 nM | 1.1 | 3310 nM | 6460 nM | 2880 nM | 1910 nM | 10500 nM | GI50 (RPMI-8226 [12]): 2240 nM; GI50 (LOX IMVI [13]): 1450 nM; GI50 (HOP-62 [18]): 18200 nM
8 | C=C1CC(COc2cccc3ccccc23)(c2ccccc2)OC1=O (stereo not given) | 3160 nM | – | 6920 nM | 1350 nM | 7410 nM | 11200 nM | 1740 nM | – | 2880 nM | 3550 nM | 1620 nM | 4370 nM | 1.84 | – | 4070 nM | 10500 nM | 1550 nM | 7760 nM | GI50 (HOP-62 [19]): 15500 nM; GI50 (NCI-H322M [15]): 15800 nM; GI50 (SR [20]): 229 nM; GI50 (RPMI-8226 [21]): 2290 nM
